# Laboratory results reported in ChEMBL document CHEMBL1781959, “Synthesis and in vitro antitumor activity of substituted quinazoline and quinoxaline derivatives: search for anticancer agent” (Eur J Med Chem, 2011).
# System: SNB-75
# Assay: Anticancer activity against human SNB75 cells assessed as cell growth promotion at 10^-5 M after 48 hrs by SRB assay relative to control
# Type: functional
row,Structure (SMILES),Activity
1,Oc1ccc(/C=C/c2nc3ccccc3nc2SCc2nc3ccccc3[nH]2)cc1,93.68%

# System: A549
# Assay: Anticancer activity against human A549 cells assessed as cell growth promotion at 10^-5 M after 48 hrs by SRB assay relative to control
# Type: functional
row,Structure (SMILES),Activity
1,N#Cc1ccc(/C=C/c2nc3ccccc3nc2SCc2nc3ccccc3[nH]2)cc1,93.12%
2,Oc1ccc(/C=C/c2nc3ccccc3nc2SCc2nc3ccccc3[nH]2)cc1,85.66%
3,CN(C)c1ccc(/C=C/c2nc3ccccc3nc2SCc2nc3ccccc3[nH]2)cc1,97.05%
4,C(=C\c1nc2ccccc2nc1SCc1nc2ccccc2[nH]1)/c1ccccc1,64.03%
5,COc1ccc(OC)c(/C=C/c2nc3ccccc3nc2SCc2nc3ccccc3[nH]2)c1,90.64%
6,Oc1ccccc1/C=C/c1nc2ccccc2nc1SCc1nc2ccccc2[nH]1,77.16%

# System: ACHN
# Assay: Anticancer activity against human ACHN cells assessed as cell growth promotion at 10^-5 M after 48 hrs by SRB assay relative to control
# Type: functional
row,Structure (SMILES),Activity
1,N#Cc1ccc(/C=C/c2nc3ccccc3nc2SCc2nc3ccccc3[nH]2)cc1,100%
2,Oc1ccc(/C=C/c2nc3ccccc3nc2SCc2nc3ccccc3[nH]2)cc1,93.62%
3,CN(C)c1ccc(/C=C/c2nc3ccccc3nc2SCc2nc3ccccc3[nH]2)cc1,103%
4,C(=C\c1nc2ccccc2nc1SCc1nc2ccccc2[nH]1)/c1ccccc1,76.83%
5,COc1ccc(OC)c(/C=C/c2nc3ccccc3nc2SCc2nc3ccccc3[nH]2)c1,94.36%
6,Oc1ccccc1/C=C/c1nc2ccccc2nc1SCc1nc2ccccc2[nH]1,69.99%

# System: SF-295
# Assay: Anticancer activity against human SF295 cells assessed as cell growth promotion at 10^-5 M after 48 hrs by SRB assay relative to control
# Type: functional
row,Structure (SMILES),Activity
1,N#Cc1ccc(/C=C/c2nc3ccccc3nc2SCc2nc3ccccc3[nH]2)cc1,127%
2,Oc1ccc(/C=C/c2nc3ccccc3nc2SCc2nc3ccccc3[nH]2)cc1,82.46%
3,CN(C)c1ccc(/C=C/c2nc3ccccc3nc2SCc2nc3ccccc3[nH]2)cc1,104%
4,C(=C\c1nc2ccccc2nc1SCc1nc2ccccc2[nH]1)/c1ccccc1,58.32%
5,COc1ccc(OC)c(/C=C/c2nc3ccccc3nc2SCc2nc3ccccc3[nH]2)c1,110%
6,Oc1ccccc1/C=C/c1nc2ccccc2nc1SCc1nc2ccccc2[nH]1,93.22%

# System: HCC 2998
# Assay: Anticancer activity against human HCC2998 cells assessed as cell growth promotion at 10^-5 M after 48 hrs by SRB assay relative to control
# Type: functional
row,Structure (SMILES),Activity
1,Oc1ccc(/C=C/c2nc3ccccc3nc2SCc2nc3ccccc3[nH]2)cc1,123%
2,CN(C)c1ccc(/C=C/c2nc3ccccc3nc2SCc2nc3ccccc3[nH]2)cc1,90.32%
3,C(=C\c1nc2ccccc2nc1SCc1nc2ccccc2[nH]1)/c1ccccc1,86.35%
4,Oc1ccccc1/C=C/c1nc2ccccc2nc1SCc1nc2ccccc2[nH]1,102%

# System: TK-10
# Assay: Anticancer activity against human TK10 cells assessed as cell growth promotion at 10^-5 M after 48 hrs by SRB assay relative to control
# Type: functional
row,Structure (SMILES),Activity
1,N#Cc1ccc(/C=C/c2nc3ccccc3nc2SCc2nc3ccccc3[nH]2)cc1,86.49%
2,Oc1ccc(/C=C/c2nc3ccccc3nc2SCc2nc3ccccc3[nH]2)cc1,107%
3,CN(C)c1ccc(/C=C/c2nc3ccccc3nc2SCc2nc3ccccc3[nH]2)cc1,113%
4,C(=C\c1nc2ccccc2nc1SCc1nc2ccccc2[nH]1)/c1ccccc1,44.74%
5,COc1ccc(OC)c(/C=C/c2nc3ccccc3nc2SCc2nc3ccccc3[nH]2)c1,56.15%
6,Oc1ccccc1/C=C/c1nc2ccccc2nc1SCc1nc2ccccc2[nH]1,43.48%

# System: SK-MEL-28
# Assay: Anticancer activity against human SK-MEL-28 cells assessed as cell growth promotion at 10^-5 M after 48 hrs by SRB assay relative to control
# Type: functional
row,Structure (SMILES),Activity
1,N#Cc1ccc(/C=C/c2nc3ccccc3nc2SCc2nc3ccccc3[nH]2)cc1,88.08%
2,Oc1ccc(/C=C/c2nc3ccccc3nc2SCc2nc3ccccc3[nH]2)cc1,102%
3,CN(C)c1ccc(/C=C/c2nc3ccccc3nc2SCc2nc3ccccc3[nH]2)cc1,124%
4,C(=C\c1nc2ccccc2nc1SCc1nc2ccccc2[nH]1)/c1ccccc1,94.52%
5,COc1ccc(OC)c(/C=C/c2nc3ccccc3nc2SCc2nc3ccccc3[nH]2)c1,118%
6,Oc1ccccc1/C=C/c1nc2ccccc2nc1SCc1nc2ccccc2[nH]1,95.95%

# System: LOX IMVI
# Assay: Anticancer activity against human LOXIMVI cells assessed as cell growth promotion at 10^-5 M after 48 hrs by SRB assay relative to control
# Type: functional
row,Structure (SMILES),Activity
1,N#Cc1ccc(/C=C/c2nc3ccccc3nc2SCc2nc3ccccc3[nH]2)cc1,100%
2,Oc1ccc(/C=C/c2nc3ccccc3nc2SCc2nc3ccccc3[nH]2)cc1,95.29%
3,CN(C)c1ccc(/C=C/c2nc3ccccc3nc2SCc2nc3ccccc3[nH]2)cc1,103%
4,C(=C\c1nc2ccccc2nc1SCc1nc2ccccc2[nH]1)/c1ccccc1,56.83%
5,COc1ccc(OC)c(/C=C/c2nc3ccccc3nc2SCc2nc3ccccc3[nH]2)c1,93.9%
6,Oc1ccccc1/C=C/c1nc2ccccc2nc1SCc1nc2ccccc2[nH]1,78.17%

# System: IGROV-1
# Assay: Anticancer activity against human IGROV1 cells assessed as cell growth promotion at 10^-5 M after 48 hrs by SRB assay relative to control
# Type: functional
row,Structure (SMILES),Activity
1,N#Cc1ccc(/C=C/c2nc3ccccc3nc2SCc2nc3ccccc3[nH]2)cc1,103%
2,Oc1ccc(/C=C/c2nc3ccccc3nc2SCc2nc3ccccc3[nH]2)cc1,71.03%
3,CN(C)c1ccc(/C=C/c2nc3ccccc3nc2SCc2nc3ccccc3[nH]2)cc1,116%
4,C(=C\c1nc2ccccc2nc1SCc1nc2ccccc2[nH]1)/c1ccccc1,87.44%
5,COc1ccc(OC)c(/C=C/c2nc3ccccc3nc2SCc2nc3ccccc3[nH]2)c1,79.39%
6,Oc1ccccc1/C=C/c1nc2ccccc2nc1SCc1nc2ccccc2[nH]1,59.92%

# System: COLO 205
# Assay: Anticancer activity against human COLO205 cells assessed as cell growth promotion at 10^-5 M after 48 hrs by SRB assay relative to control
# Type: functional
row,Structure (SMILES),Activity
1,N#Cc1ccc(/C=C/c2nc3ccccc3nc2SCc2nc3ccccc3[nH]2)cc1,105%
2,Oc1ccc(/C=C/c2nc3ccccc3nc2SCc2nc3ccccc3[nH]2)cc1,119%
3,CN(C)c1ccc(/C=C/c2nc3ccccc3nc2SCc2nc3ccccc3[nH]2)cc1,110%
4,C(=C\c1nc2ccccc2nc1SCc1nc2ccccc2[nH]1)/c1ccccc1,75.7%
5,COc1ccc(OC)c(/C=C/c2nc3ccccc3nc2SCc2nc3ccccc3[nH]2)c1,104%
6,Oc1ccccc1/C=C/c1nc2ccccc2nc1SCc1nc2ccccc2[nH]1,96.37%

# System: MCF7
# Assay: Anticancer activity against human MCF7 cells assessed as cell growth promotion at 10^-5 M after 48 hrs by SRB assay relative to control
# Type: functional
row,Structure (SMILES),Activity
1,N#Cc1ccc(/C=C/c2nc3ccccc3nc2SCc2nc3ccccc3[nH]2)cc1,101%
2,Oc1ccc(/C=C/c2nc3ccccc3nc2SCc2nc3ccccc3[nH]2)cc1,89.91%
3,CN(C)c1ccc(/C=C/c2nc3ccccc3nc2SCc2nc3ccccc3[nH]2)cc1,77.51%
4,C(=C\c1nc2ccccc2nc1SCc1nc2ccccc2[nH]1)/c1ccccc1,40.3%
5,COc1ccc(OC)c(/C=C/c2nc3ccccc3nc2SCc2nc3ccccc3[nH]2)c1,82.73%
6,Oc1ccccc1/C=C/c1nc2ccccc2nc1SCc1nc2ccccc2[nH]1,51.8%

# System: PC-3
# Assay: Anticancer activity against human PC3 cells assessed as cell growth promotion at 10^-5 M after 48 hrs by SRB assay relative to control
# Type: functional
row,Structure (SMILES),Activity
1,N#Cc1ccc(/C=C/c2nc3ccccc3nc2SCc2nc3ccccc3[nH]2)cc1,103%
2,Oc1ccc(/C=C/c2nc3ccccc3nc2SCc2nc3ccccc3[nH]2)cc1,96.98%
3,CN(C)c1ccc(/C=C/c2nc3ccccc3nc2SCc2nc3ccccc3[nH]2)cc1,119%
4,COc1ccc(OC)c(/C=C/c2nc3ccccc3nc2SCc2nc3ccccc3[nH]2)c1,113%
5,Oc1ccccc1/C=C/c1nc2ccccc2nc1SCc1nc2ccccc2[nH]1,63.9%

# System: NCI-H226
# Assay: Anticancer activity against human NCI-H226 cells assessed as cell growth promotion at 10^-5 M after 48 hrs by SRB assay relative to control
# Type: functional
row,Structure (SMILES),Activity
1,N#Cc1ccc(/C=C/c2nc3ccccc3nc2SCc2nc3ccccc3[nH]2)cc1,95.59%
2,Oc1ccc(/C=C/c2nc3ccccc3nc2SCc2nc3ccccc3[nH]2)cc1,99.33%
3,CN(C)c1ccc(/C=C/c2nc3ccccc3nc2SCc2nc3ccccc3[nH]2)cc1,105%
4,C(=C\c1nc2ccccc2nc1SCc1nc2ccccc2[nH]1)/c1ccccc1,65.68%
5,COc1ccc(OC)c(/C=C/c2nc3ccccc3nc2SCc2nc3ccccc3[nH]2)c1,87.18%
6,Oc1ccccc1/C=C/c1nc2ccccc2nc1SCc1nc2ccccc2[nH]1,79.35%

# System: OVCAR-8
# Assay: Anticancer activity against human OVCAR8 cells assessed as cell growth promotion at 10^-5 M after 48 hrs by SRB assay relative to control
# Type: functional
row,Structure (SMILES),Activity
1,N#Cc1ccc(/C=C/c2nc3ccccc3nc2SCc2nc3ccccc3[nH]2)cc1,103%
2,Oc1ccc(/C=C/c2nc3ccccc3nc2SCc2nc3ccccc3[nH]2)cc1,100%
3,CN(C)c1ccc(/C=C/c2nc3ccccc3nc2SCc2nc3ccccc3[nH]2)cc1,108%
4,C(=C\c1nc2ccccc2nc1SCc1nc2ccccc2[nH]1)/c1ccccc1,82.17%
5,COc1ccc(OC)c(/C=C/c2nc3ccccc3nc2SCc2nc3ccccc3[nH]2)c1,92.09%
6,Oc1ccccc1/C=C/c1nc2ccccc2nc1SCc1nc2ccccc2[nH]1,75.12%

# System: DU-145
# Assay: Anticancer activity against human DU145 cells assessed as cell growth promotion at 10^-5 M after 48 hrs by SRB assay relative to control
# Type: functional
row,Structure (SMILES),Activity
1,N#Cc1ccc(/C=C/c2nc3ccccc3nc2SCc2nc3ccccc3[nH]2)cc1,103%
2,Oc1ccc(/C=C/c2nc3ccccc3nc2SCc2nc3ccccc3[nH]2)cc1,97.51%
3,CN(C)c1ccc(/C=C/c2nc3ccccc3nc2SCc2nc3ccccc3[nH]2)cc1,95.35%
4,C(=C\c1nc2ccccc2nc1SCc1nc2ccccc2[nH]1)/c1ccccc1,74.33%
5,COc1ccc(OC)c(/C=C/c2nc3ccccc3nc2SCc2nc3ccccc3[nH]2)c1,98.54%
6,Oc1ccccc1/C=C/c1nc2ccccc2nc1SCc1nc2ccccc2[nH]1,76.88%

# System: MDA-MB-468
# Assay: Anticancer activity against human MDA-MB-468 cells assessed as cell growth promotion at 10^-5 M after 48 hrs by SRB assay relative to control
# Type: functional
row,Structure (SMILES),Activity
1,N#Cc1ccc(/C=C/c2nc3ccccc3nc2SCc2nc3ccccc3[nH]2)cc1,104%
2,Oc1ccc(/C=C/c2nc3ccccc3nc2SCc2nc3ccccc3[nH]2)cc1,114%
3,CN(C)c1ccc(/C=C/c2nc3ccccc3nc2SCc2nc3ccccc3[nH]2)cc1,109%
4,C(=C\c1nc2ccccc2nc1SCc1nc2ccccc2[nH]1)/c1ccccc1,39.93%
5,COc1ccc(OC)c(/C=C/c2nc3ccccc3nc2SCc2nc3ccccc3[nH]2)c1,98.24%
6,Oc1ccccc1/C=C/c1nc2ccccc2nc1SCc1nc2ccccc2[nH]1,59.53%

# System: OVCAR-4
# Assay: Anticancer activity against human OVCAR4 cells assessed as cell growth promotion at 10^-5 M after 48 hrs by SRB assay relative to control
# Type: functional
row,Structure (SMILES),Activity
1,Oc1ccc(/C=C/c2nc3ccccc3nc2SCc2nc3ccccc3[nH]2)cc1,107%
2,C(=C\c1nc2ccccc2nc1SCc1nc2ccccc2[nH]1)/c1ccccc1,2.71%
3,Oc1ccccc1/C=C/c1nc2ccccc2nc1SCc1nc2ccccc2[nH]1,25.22%

# System: SF-539
# Assay: Anticancer activity against human SF539 cells assessed as cell growth promotion at 10^-5 M after 48 hrs by SRB assay relative to control
# Type: functional
row,Structure (SMILES),Activity
1,N#Cc1ccc(/C=C/c2nc3ccccc3nc2SCc2nc3ccccc3[nH]2)cc1,125%
2,Oc1ccc(/C=C/c2nc3ccccc3nc2SCc2nc3ccccc3[nH]2)cc1,111%
3,CN(C)c1ccc(/C=C/c2nc3ccccc3nc2SCc2nc3ccccc3[nH]2)cc1,85.81%
4,C(=C\c1nc2ccccc2nc1SCc1nc2ccccc2[nH]1)/c1ccccc1,97.75%
5,COc1ccc(OC)c(/C=C/c2nc3ccccc3nc2SCc2nc3ccccc3[nH]2)c1,94.92%
6,Oc1ccccc1/C=C/c1nc2ccccc2nc1SCc1nc2ccccc2[nH]1,97.28%
